Reference: patent publication US6172052A, “17β-acyl-17α-propynyl-11β-arylsteroids and their derivatives having agonist or antagonist hormonal properties” (Research Triangle Institute, priority 1998, dated 2001)

Legend:
[1] = test system: progestin receptor; assay: Receptor binding: relative binding activity (RBA) for progestin receptor, competition with 3H-R5020 in T-47D cells; settings: T-47D human breast carcinoma cells; ratio of concentrations causing 50% displacement of 3H-R5020; percentage of reference standard R-5020
Description: Receptor Binding. The affinity of the compounds for hormone receptors was determined by standard procedures similar to those that have been described, inter alia, by Wagner et al., Proc. Natl. Acad. Sci., 93, 8739-8744 (1996) for COS-1 cells. The human breast carcinoma (T-47D) cell line was used to assess RBA for progestin receptor. The cell line used was obtained from ATCC (American Type Culture Collection) and stored frozen at -135° C. until a week before the assays were conducted. The cells were thawed and cultured to achieve the desired cell number (5 to 7 days on average). […] After incubation overnight, medium was removed, the cells were washed and solubilized and radioactivity was measured by liquid scintillation spectromctry. Nonspecific binding was determined by incubation with an excess of unlabeled R5020 and subtracted from total binding to calculate specific binding. […]
The percentage of specifically bound ^3 H-R5020 for each concentration tested was calculated and binding curves were generated by plotting the percentage of specifically bound ^3 H-R-5020 versus the concentration of the competitor. The relative binding activity (RBA) of the test compounds, relative to the reference standard (R5020) as well as the internal standard, was determined from the ratio of concentrations causing 50% displacement for each unknown and standard, and expressed as a percentage value. […]

[2] = test system: estrogen-primed, progesterone-stimulated immature female rabbits; assay: In vivo antiprogestational activity, uterine endometrial effects scored according to McPhail; design: species or system rabbit; settings: oral
Description: In vivo Test. Antiprogestational activity was determined in vivo by dose-response studies in estrogen-primed, progesterone-stimulated immature female rabbits and results were scored according to McPhail (McPhail, J. Physiol., 83: 146 (1934)). These are standard procedures well-known to those skilled in the art. For determining antiprogestational (antagonist) activity, the test compound was given orally together with subcutaneous administration of progesterone. It was tested orally at 0.5, 1 and 2 mg total dose in estrogenprimed immature female rabbits that were simultaneously given subcutaneous progesterone. The rabbits, weighing about 1.5 kg, were primed with estrogen one a day for 6 days and then treated once a day for 5 days with 0.8 mg total dose of progesterone--i.e.160 μg/day--while at the same time giving the test compound orally once a day in a vehicle of 10% ethanol/sesame oil (0.5 mL volume). Necropsy was performed one day after the last dose. Uterine endometrial effects were scored according to McPhail and potency was evaluated by statistical comparison with the standard compound
17α-acetoxy-11β-[4-(N,N-dimethylamino)phenyl]-19-norpregna-4,9-diene-3,20-dione.

[3] = from C. E. Cook et al, Human Reproduction, 9, Supplement 1, 32-39, June 1994; cited from earlier work

Structure (SMILES) | RBA (relative binding activity) relative to R-5020 [1] [%] | antiprogestational potency relative to the standard compound ([2]; once a day for 5 days with subcutaneous progesterone, McPhail score, standard = 17α-acetoxy-11β-[4-(N,N-dimethylamino)phenyl]-19-norpregna-4,9-diene-3,20-dione) [fold] | antiprogestational potency relative to mifepristone ([2]; worked out from 5-fold versus standard and standard 3-fold versus mifepristone) [fold] | antiprogestational activity (in words) ([2]; estrogen-primed, progesterone-stimulated immature female rabbits) | antiprogestational potency relative to mifepristone [3]
CC#C[C@]1(C(C)=O)CC[C@H]2[C@@H]3CCC4=CC(=O)CCC4=C3[C@@H](c3ccc(N(C)C)cc3)C[C@@]21C [A-1, 11β-[4-(N,N-Dimethylamino)phenyl]-17α-(1-propynyl)-19-norpregna-4,9-diene-3,20-dione] | 313 | 5 | ≤ 15 |  | 
CC#C[C@]1(C(C)=O)CC[C@H]2[C@@H]3CCC4=CC(=O)CCC4=C3[C@@H](c3ccc(C(C)=O)cc3)C[C@@]21C [A-16, 11β-(4-Acetylphenyl)-17α-(1-propynyl)-19-norpregna-4,9-diene-3,20-dione] | 439 |  |  | had antiprogestational activity | 
CC(=O)O[C@]1(C(C)=O)CC[C@H]2[C@@H]3CCC4=CC(=O)CCC4=C3[C@@H](c3ccc(N(C)C)cc3)C[C@@]21C [standard compound, 17α-acetoxy-11β-[4-(N,N-dimethylamino)phenyl]-19-norpregna-4,9-diene-3,20-dione] |  |  |  |  | approximately 3 fold
